Columns and labels:
[1] = Tested for acute toxicity after administration of compound at 50 mg/kg intraperitoneally in mice; assay type: organism-based; design: dose 50 mg/kg, route intraperitoneal; conditions: mouse, in vivo, ip
Mus musculus = assay: Tested for inhibitory activity after administration of compound at 50 mg/kg perorally using AcOH writhing method; assay type: functional; conditions: route oral
Rattus norvegicus [2] = assay: Percent inhibition of carrageenan induced rat paw edema 3 hr after a peroral administration of 50 mg/kg; assay type: functional; conditions: route oral
Rattus norvegicus [3] = assay: Percent inhibition of carrageenan induced rat paw edema 3 hr after a peroral administration of 20 mg/kg; assay type: functional; conditions: route oral
Rattus norvegicus [4] = assay: Percent inhibition of carrageenan induced rat paw edema 3 hr after a peroral administration of 10 mg/kg; assay type: functional; conditions: route oral
Rattus norvegicus [5] = assay: Percent inhibition after administration at 2 mg/kg perorally using carrageenan induced rat paw edema method; assay type: functional; conditions: route oral
Rattus norvegicus [6] = assay: Percent inhibition of carrageenan induced rat paw edema 3 hr after a peroral administration of 0.5 mg/kg; assay type: functional; conditions: route oral

With `COc1ccc(CC(=O)O)cc1-c1ccc(Cl)cc1` the LD50 [1] was 673 mg/kg, the ED50 (Mus musculus) was 26.7 mg/kg and the inhibition in vivo at 50 mg/kg (Rattus norvegicus [2]) was 49%. The inhibition in vivo at 20 mg/kg (Rattus norvegicus [3]) was 19%.

With `COc1cccc(CC(=O)O)c1-c1ccc(Cl)cc1` the LD50 [1] was 566 mg/kg, the ED50 (Mus musculus) was > 50 mg/kg and the inhibition in vivo at 50 mg/kg (Rattus norvegicus [2]) was 0%.

With `COc1cccc(-c2ccc(Cl)cc2)c1CC(=O)O` the LD50 [1] was 476 mg/kg, the ED50 (Mus musculus) was > 50 mg/kg and the inhibition in vivo at 50 mg/kg (Rattus norvegicus [2]) was 0%.

In the case of `COc1ccc(CC(=O)O)c(-c2ccc(Cl)cc2)c1`, the LD50 [1] is reported as 566 mg/kg, the ED50 (Mus musculus) is reported as > 50 mg/kg and the inhibition in vivo at 50 mg/kg (Rattus norvegicus [2]) is reported as 0%.

In the case of `COc1ccc(-c2ccc(Cl)cc2)cc1CC(=O)O`, the LD50 [1] is reported as 566 mg/kg, the ED50 (Mus musculus) is reported as > 50 mg/kg and the inhibition in vivo at 50 mg/kg (Rattus norvegicus [2]) is reported as 0%.

In the case of `COc1c(CC(=O)O)cccc1-c1ccc(Cl)cc1`, the LD50 [1] is reported as 283 mg/kg, the ED50 (Mus musculus) is reported as > 50 mg/kg and the inhibition in vivo at 50 mg/kg (Rattus norvegicus [2]) is reported as 16%.

For `COc1cc(CC(=O)O)cc(-c2ccc(Cl)cc2)c1`, the LD50 [1] was 570 mg/kg, the ED50 (Mus musculus) was 16.1 mg/kg and the inhibition in vivo at 10 mg/kg (Rattus norvegicus [4]) was 39%. For the same compound, the inhibition in vivo at 50 mg/kg (Rattus norvegicus [2]) was 53% and the inhibition in vivo at 20 mg/kg (Rattus norvegicus [3]) was 65%.

For `COc1cc(-c2ccc(Cl)cc2)ccc1CC(=O)O`, the LD50 [1] was 400 mg/kg, the ED50 (Mus musculus) was > 50 mg/kg and the inhibition in vivo at 50 mg/kg (Rattus norvegicus [2]) was 27%.

For `COc1ccc(-c2ccc(Cl)cc2)c(CC(=O)O)c1`, the LD50 [1] was 566 mg/kg, the ED50 (Mus musculus) was > 50 mg/kg and the inhibition in vivo at 50 mg/kg (Rattus norvegicus [2]) was 13%.

Compound `COc1cc(CC(=O)O)ccc1-c1ccc(Cl)cc1` has an LD50 [1] of 238 mg/kg, an ED50 (Mus musculus) of 35.1 mg/kg and an inhibition in vivo at 50 mg/kg (Rattus norvegicus [2]) of 38%. For the same compound, the inhibition in vivo at 20 mg/kg (Rattus norvegicus [3]) was 27%.

For `COc1ccc2c(c1)c(CC(=O)O)c(C)n2C(=O)c1ccc(Cl)cc1` [INDOMETHACIN], the inhibition in vivo at 2 mg/kg (Rattus norvegicus [5]) was 25%, the inhibition in vivo at 0.5 mg/kg (Rattus norvegicus [6]) was 19% and the inhibition in vivo at 50 mg/kg (Rattus norvegicus [2]) was 45%.
